{
  "source": "patent US11648258B2",
  "about": "“Method and compounds for inhibiting the MCM complex and their application in cancer treatment” (priority 2012, dated 2023)",
  "key": {"[1]": {"test_system": "normal cells (L-02, NP460)", "assay": "WST-1 anti-proliferation assay, normal cells (IC50)", "assay_type": "cell-based", "conditions": "Homo sapiens, 48 hrs treatment", "experimental": "For testing the anti-proliferation activity of the compounds in human cell lines and calculation of IC50, cancer cells including HepG2, HeLa and Hep3B (4×10^5 cells/well) and normal L-02 cells (5×10^5 cells/well) were respectively seeded in 96-well plates in 100 μl of culture medium and incubated for about 12 hrs at 37° C. The cells were treated with two-fold serial dilutions of the drugs for 48 hrs. Medium was removed and 100 μl of culture medium containing 1 μM WST-1 (water soluble tetrazolium-1) were added to each well. The cells were incubated for 2 hrs, and absorbance at 405 nm (reference at 630 nm) was then measured. To construct the standard curve of the relationship between cell number and absorbance at OD405, serial dilutions of cells with known cell numbers were seeded and incubated for six hrs before being measured by the WST-1 assay. The cell viability was expressed as the ratio of the number of live cells treated with a candidate compound versus that of the DMSO-treated cells. […]"}, "[2]": {"molecular_target": "T1, hMcm2 and hMcm6 chromatin association (Homo sapiens, UniProt P49736+Q14566)", "T1 construct": "endogenous in cells; host or cells: HeLa", "T1 sequence (P49736 2-904 limits assumed)": "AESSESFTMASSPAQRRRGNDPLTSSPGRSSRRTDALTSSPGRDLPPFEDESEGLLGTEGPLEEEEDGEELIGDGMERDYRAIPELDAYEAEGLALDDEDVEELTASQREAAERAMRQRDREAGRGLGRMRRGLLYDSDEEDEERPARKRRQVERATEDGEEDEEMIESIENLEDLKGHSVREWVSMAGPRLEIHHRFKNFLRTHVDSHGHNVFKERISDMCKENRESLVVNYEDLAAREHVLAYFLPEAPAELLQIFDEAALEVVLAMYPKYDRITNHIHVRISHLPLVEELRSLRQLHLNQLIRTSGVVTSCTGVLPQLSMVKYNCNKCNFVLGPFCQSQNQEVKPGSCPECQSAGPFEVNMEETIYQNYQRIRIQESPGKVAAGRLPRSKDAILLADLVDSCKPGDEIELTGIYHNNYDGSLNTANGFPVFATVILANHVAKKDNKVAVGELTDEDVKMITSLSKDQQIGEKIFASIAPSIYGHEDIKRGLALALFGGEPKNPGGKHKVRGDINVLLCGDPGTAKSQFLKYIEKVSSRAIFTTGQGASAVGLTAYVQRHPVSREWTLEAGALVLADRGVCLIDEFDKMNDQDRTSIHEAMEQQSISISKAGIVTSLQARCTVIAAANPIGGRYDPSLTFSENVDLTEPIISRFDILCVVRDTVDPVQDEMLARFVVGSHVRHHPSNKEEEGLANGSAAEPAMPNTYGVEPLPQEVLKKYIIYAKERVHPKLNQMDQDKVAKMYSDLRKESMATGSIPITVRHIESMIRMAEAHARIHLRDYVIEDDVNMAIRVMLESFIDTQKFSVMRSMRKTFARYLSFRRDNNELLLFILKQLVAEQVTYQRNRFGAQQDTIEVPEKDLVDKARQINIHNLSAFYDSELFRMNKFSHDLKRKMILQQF", "T1 sequence (Q14566 whole entry)": "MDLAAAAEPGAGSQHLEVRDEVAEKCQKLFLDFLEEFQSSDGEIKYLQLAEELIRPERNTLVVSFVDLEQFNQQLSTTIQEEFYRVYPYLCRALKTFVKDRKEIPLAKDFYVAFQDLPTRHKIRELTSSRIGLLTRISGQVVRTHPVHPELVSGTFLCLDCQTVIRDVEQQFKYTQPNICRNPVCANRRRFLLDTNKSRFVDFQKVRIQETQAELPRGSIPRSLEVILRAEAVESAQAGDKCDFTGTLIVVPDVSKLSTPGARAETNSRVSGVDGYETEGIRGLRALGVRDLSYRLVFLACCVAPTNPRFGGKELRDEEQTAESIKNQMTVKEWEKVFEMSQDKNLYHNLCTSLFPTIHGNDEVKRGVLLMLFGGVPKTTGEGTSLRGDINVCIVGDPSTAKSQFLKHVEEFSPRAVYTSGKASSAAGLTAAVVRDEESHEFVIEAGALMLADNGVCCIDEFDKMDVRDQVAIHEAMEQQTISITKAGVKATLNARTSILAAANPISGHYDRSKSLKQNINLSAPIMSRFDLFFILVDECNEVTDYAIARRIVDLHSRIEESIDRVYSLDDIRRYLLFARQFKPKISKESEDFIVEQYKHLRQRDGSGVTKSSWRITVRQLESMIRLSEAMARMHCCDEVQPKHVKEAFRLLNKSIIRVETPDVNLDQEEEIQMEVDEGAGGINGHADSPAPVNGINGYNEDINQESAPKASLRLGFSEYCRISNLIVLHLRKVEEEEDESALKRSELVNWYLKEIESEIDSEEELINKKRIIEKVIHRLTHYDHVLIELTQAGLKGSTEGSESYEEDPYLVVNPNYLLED", "assay": "Chromatin binding assay (pre-RC assembly) in HeLa cells", "assay_type": "cell-based", "experimental": "Cells were harvested by trypsinization and washed twice with cold PBS. Extraction buffer (EB; ˜20 μl/10^6 cells) (100 mM KCl, 50 mM HEPES-KOH pH7.5, 2.5 mM MgCl2, 50 mM NaF, 5 mM Na4P2O7, 0.1 mM NaVO3, 0.5% Triton X-100, 1 mM PMSF, 2 μg/ml Pepstatin A, 20 μg/ml Leupeptin, 20 μg/ml Aprotinin, 0.2 mM Pefabloc, 2 mM Benzamidine HCl and 0.2 mg/ml Bacitracin) was added to resuspend and lyse the cells by pippetting. Cells were set on ice for 10 min, and flicked to mix every 2-3 min during the incubation. A volume of 30% ice-cold sucrose equal to EB containing protease inhibitors as in EB was added to the bottom of tube. The tube was spun at top speed in a microcentrifuge for 10 min to separate the chromatin and free proteins. The supernatant was transferred to a new tube and kept on ice. […]\nAs the component of pre-RC, the MCM complex plays a central role in the licensing of DNA replication. […] In FIGS. 5A and B, asynchronous Hela cells were treated with 17beta-Deacetyltanghinin for 24 hrs and analyzed by the chromatin binding assay (FIG. 5A). Untreated cells (Untreat.), cells treated with the solvent DMSO, and those treated with 0.2, 0.4 or 0.8∝g/ml 17beta-Deacetyltanghinin were analyzed for pre-RC components in the chromatin and supernatant fractions by immunoblotting (FIG. 5A). […] Each cell sample was also analyzed for cell cycle distribution by flow cytometry (FIG. 5B). […]"}, "[3]": {"test_system": "HeLa cells xenograft tumors", "assay": "In vivo anticancer activity, nude mice xenograft model", "conditions": "for suppression of tumor growth: days 1-3 and 6-10, HeLa xenograft", "experimental": "In vivo anticancer activity tests were carried out in the nude mice xenograft model by inoculating nude mice with HeLa cells in both the left and right flanks. After random grouping, nude mice were treated intraperitoneally with 17beta-Deacetyltanghinin or the solvent (30% of propylene glycol in PBS). In the first test, 3 days after tumor inoculation when small tumors started to form, two groups of nude mice were treated on days 1-3 and 6-10 with 3.5 and 7.0 mg-drug/kg-body weight of 17beta-Deacetyltanghinin respectively, and another group of control mice were treated with the same volume of the solvent (FIG. 10A). In FIG. 10A, the tumor volume data represented by the small-size data point symbol linked with thin lines were obtained on the days when both measurement of tumor size and drug injections were performed, and the tumor volume data represented by the large-size data point symbol linked with thick lines were obtained on the days without drug injection. Each tumor size was average of ten tumors in five mice in each group.\nA further set of animal experiments was then conducted with a longer period of time, in which fifteen drug injections at 5.0 mg/kg were performed one week after tumor inoculation when the tumor size reached 0.05-0.1 cm^3. In FIG. 10B, drug injections and tumor size measurements were performed on the days represented by the data points, and the photographs in FIG. 10C were taken on day 20."}},
  "data": [
    {"smiles": "COC1C(O)[C@H](O[C@H]2CC[C@]3(C)C4CC[C@]5(C)[C@@H](C6=CC(=O)OC6)CC[C@]5(O)[C@@]45O[C@H]5C[C@@H]3C2)OC(C)[C@@H]1O", "note": "(stereo partly drawn) [17beta-Deacetyltanghinin, 3β-O-(3-O-methyl-6-deoxy-α-L-glucopyranosyl)-7β,8β-epoxy-14β-hydroxy-card-20(22)-enolide]", "values": [
      {"measurement": "IC50", "setting": "[1]", "value": "> 4", "unit": "µg/mL"},
      {"measurement": "MCM loading onto chromatin", "setting": "[2]; HeLa cells released from nocodazole M phase arrest", "value": "largely prevented"},
      {"measurement": "hMcm2 and hMcm6 in chromatin fractions", "setting": "[2]; asynchronous HeLa cells, 24 hrs, 0.2, 0.4 or 0.8 ∝g/ml", "value": "significantly reduced"},
      {"measurement": "suppression of tumor growth", "setting": "[3]; 3.5 mg/kg intraperitoneally", "value": 70, "unit": "%"},
      {"measurement": "suppression of tumor growth", "setting": "[3]; 7.0 mg/kg intraperitoneally", "value": 90, "unit": "%"},
      {"measurement": "tumors smaller than in solvent-treated control mice", "setting": "[3]; fifteen injections at 5.0 mg/kg, started one week after inoculation", "value": "over 80%"}
    ]}
  ]
}
